# Results: US20240409585A1, “MACROCYCLIC IMMUNOMODULATORS” (priority 2021, published 2024)
# Bridge positions count the residues as written; N and C are the ends. Square brackets hold non-standard residues; d marks the D form. Peptide text beside a SMILES is read from it. * marks the point of attachment. ξ: configuration not given here. Phe(4-COOH) = N[C@@H](Cc1ccc(C(=O)O)cc1)C(=O)O; Bip = N[C@@H](Cc1ccc(-c2ccccc2)cc1)C(=O)O; Phe(3-Me) = Cc1cccc(C[C@H](N)C(=O)O)c1; Gly(cPent) = N[C@H](C(=O)O)C1CCCC1; 4Pal = N[C@@H](Cc1ccncc1)C(=O)O; Cha = N[C@@H](CC1CCCCC1)C(=O)O; Ile(3ξ) = CCC(C)[C@H](N)C(=O)O; Thr(3ξ) = CC(O)[C@H](N)C(=O)O; Ala(CN) = N#CC[C@H](N)C(=O)O; NMeNle = CCCC[C@H](NC)C(=O)O; Carboxymethyl = O=C(O)C*; NMeA = CN[C@@H](C)C(=O)O; Dab = NCC[C@H](N)C(=O)O; Dap = NC[C@H](N)C(=O)O
# Target: T1, PE-labeled human PD-L1-Ig binding to Jurkat cell line over-expressing human PD-1 (Jurkat-PD-1) (Homo sapiens, UniProt Q15116)
# T1 construct: expressed in transfected cells; host or cells: Jurkat
# T1 sequence (Q15116 25-288): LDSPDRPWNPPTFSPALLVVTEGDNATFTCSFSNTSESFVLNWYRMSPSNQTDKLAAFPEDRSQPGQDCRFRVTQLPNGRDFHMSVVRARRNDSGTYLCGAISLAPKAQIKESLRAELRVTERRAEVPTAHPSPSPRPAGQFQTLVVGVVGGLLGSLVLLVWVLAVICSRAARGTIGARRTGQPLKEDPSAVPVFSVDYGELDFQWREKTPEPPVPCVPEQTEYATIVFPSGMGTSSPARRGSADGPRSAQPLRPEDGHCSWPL
# Experiment: Jurkat-PD-1 Cell Binding High-Content Screening Assay (CBA): Method 1
# Conditions: Jurkat HPDL1 PD1 IC50 (uM) (Method 1)
row,Compound,IC50 [µM]
1,CCC(C)[C@@H]1NC(=O)[C@H](Cc2ccc(-c3ccccc3)cc2)NC(=O)[C@H](C(C)C)NC(=O)[C@H](Cc2cccc(C)c2)NC(=O)[C@H](CC(=O)O)NC(=O)[C@H](Cc2cccc(C)c2)NC(=O)[C@H](Cc2ccncc2)NC(=O)CSC[C@@H](C(=O)N[C@@H](CO)C(=O)O)NC(=O)[C@H](CO)NC(=O)[C@H](C(C)C)NC(=O)[C@H](CC2CCCCC2)NC(=O)[C@H](CCN)NC(=O)[C@@H](CC(C)C)NC(=O)[C@H](C)N(C)C1=O (stereo partly drawn) [Compound 2233] ({CH2CO}-[4Pal][Phe(3-Me)]D[Phe(3-Me)]V[Bip][Ile(3ξ)][NMeA][dL][Dab][Cha]VSCS-OH; thioether N-14),0.02

# Same assay, conditions: Jurkat-hPD-1 cells, PE-labeled PD-L1-Ig 20 nM final; read-out: Jurkat HPDL1 PD1 IC50 (uM) (Method 1)
row,IC50 [µM],Compound
1,0.04,CCC(C)[C@@H]1NC(=O)[C@H](Cc2ccc(-c3ccccc3)cc2)NC(=O)[C@H](CC2CCCCC2)NC(=O)[C@H](Cc2c[nH]c3ccccc23)NC(=O)[C@H](CC(=O)O)NC(=O)[C@H](Cc2ccc(OCC(=O)O)cc2)NC(=O)[C@H](C(C)O)NC(=O)CSC[C@@H](C(=O)N[C@@H](CC(N)=O)C(=O)O)NC(=O)[C@H](CO)NC(=O)[C@H](C(C)C)NC(=O)[C@H](CC(C)C)NC(=O)[C@H](CCN)NC(=O)[C@@H](CC(C)C)NC(=O)[C@H](C)N(C)C1=O (stereo partly drawn) [Compound 2223] ({CH2CO}-[Thr(3ξ)]Y(Carboxymethyl)DW[Cha][Bip][Ile(3ξ)][NMeA][dL][Dab]LVSCN-OH; thioether N-14)
2,0.24,CCC(C)[C@@H]1NC(=O)[C@H](Cc2ccc(-c3ccccc3)cc2)NC(=O)[C@H](CC(C)C)NC(=O)[C@H](Cc2c[nH]c3ccccc23)NC(=O)[C@H](CC(=O)O)NC(=O)[C@H](Cc2ccc(OCC(=O)O)cc2)NC(=O)[C@H](C(C)O)NC(=O)CSC[C@@H](C(=O)N[C@@H](CC(N)=O)C(=O)O)NC(=O)[C@H](CC(C)C)NC(=O)[C@H](C(C)C)NC(=O)[C@H](CC(C)C)NC(=O)[C@H](CCN)NC(=O)[C@@H](CC(C)C)NC(=O)[C@H](C)N(C)C1=O (stereo partly drawn) [Compound 2224] ({CH2CO}-[Thr(3ξ)]Y(Carboxymethyl)DWL[Bip][Ile(3ξ)][NMeA][dL][Dab]LVLCN-OH; thioether N-14)
3,0.08,CCC(C)[C@@H]1NC(=O)[C@H](Cc2ccc(-c3ccccc3)cc2)NC(=O)[C@H](CC(C)C)NC(=O)[C@H](Cc2c[nH]c3ccccc23)NC(=O)[C@H](CC(=O)O)NC(=O)[C@H](Cc2ccc(OCC(=O)O)cc2)NC(=O)[C@H](C(C)O)NC(=O)CSC[C@@H](C(=O)N[C@@H](CC(N)=O)C(=O)O)NC(=O)[C@H](CC(=O)O)NC(=O)[C@H](C(C)C)NC(=O)[C@H](CC(C)C)NC(=O)[C@H](CCN)NC(=O)[C@@H](CC(C)C)NC(=O)[C@H](C)N(C)C1=O (stereo partly drawn) [Compound 2225] ({CH2CO}-[Thr(3ξ)]Y(Carboxymethyl)DWL[Bip][Ile(3ξ)][NMeA][dL][Dab]LVDCN-OH; thioether N-14)
4,0.06,CCC(C)[C@@H]1NC(=O)[C@H](Cc2ccc(-c3ccccc3)cc2)NC(=O)[C@H](CC(C)C)NC(=O)[C@H](Cc2c[nH]c3ccccc23)NC(=O)[C@H](CC(=O)O)NC(=O)[C@H](Cc2ccc(OCC(=O)O)cc2)NC(=O)[C@H](C(C)O)NC(=O)CSC[C@@H](C(=O)N[C@@H](CC(N)=O)C(=O)O)NC(=O)[C@H](CC#N)NC(=O)[C@H](C(C)C)NC(=O)[C@H](CC(C)C)NC(=O)[C@H](CCN)NC(=O)[C@@H](CC(C)C)NC(=O)[C@H](C)N(C)C1=O (stereo partly drawn) [Compound 2226] ({CH2CO}-[Thr(3ξ)]Y(Carboxymethyl)DWL[Bip][Ile(3ξ)][NMeA][dL][Dab]LV[Ala(CN)]CN-OH; thioether N-14)
5,0.81,CCC(C)[C@@H]1NC(=O)[C@H](Cc2ccc(-c3ccccc3)cc2)NC(=O)[C@H](CC(C)C)NC(=O)[C@H](Cc2c[nH]c3ccccc23)NC(=O)[C@H](CC(=O)O)NC(=O)[C@H](Cc2ccc(OCC(=O)O)cc2)NC(=O)[C@H](C(C)O)NC(=O)CSC[C@@H](C(=O)N[C@@H](CC(N)=O)C(=O)O)NC(=O)[C@H](C2CCCC2)NC(=O)[C@H](C(C)C)NC(=O)[C@H](CC(C)C)NC(=O)[C@H](CCN)NC(=O)[C@@H](CC(C)C)NC(=O)[C@H](C)N(C)C1=O (stereo partly drawn) [Compound 2227] ({CH2CO}-[Thr(3ξ)]Y(Carboxymethyl)DWL[Bip][Ile(3ξ)][NMeA][dL][Dab]LV[Gly(cPent)]CN-OH; thioether N-14)
6,0.12,CCC(C)[C@@H]1NC(=O)[C@H](Cc2ccc(-c3ccccc3)cc2)NC(=O)[C@H](CC(C)C)NC(=O)[C@H](Cc2c[nH]c3ccccc23)NC(=O)[C@H](CC(=O)O)NC(=O)[C@H](Cc2ccc(OCC(=O)O)cc2)NC(=O)[C@H](C(C)O)NC(=O)CSC[C@@H](C(=O)N[C@@H](CC(N)=O)C(=O)O)NC(=O)[C@H](CN)NC(=O)[C@H](C(C)C)NC(=O)[C@H](CC(C)C)NC(=O)[C@H](CCN)NC(=O)[C@@H](CC(C)C)NC(=O)[C@H](C)N(C)C1=O (stereo partly drawn) [Compound 2228] ({CH2CO}-[Thr(3ξ)]Y(Carboxymethyl)DWL[Bip][Ile(3ξ)][NMeA][dL][Dab]LV[Dap]CN-OH; thioether N-14)
7,0.11,CCCC[C@H]1C(=O)N[C@H](CC(C)C)C(=O)N[C@@H](CCN)C(=O)N[C@@H](CC(C)C)C(=O)N[C@@H](C(C)C)C(=O)N[C@@H](CO)C(=O)N[C@H](C(=O)N[C@@H](CC(N)=O)C(=O)O)CSCC(=O)N[C@@H](C(C)O)C(=O)N[C@@H](Cc2ccc(OCC(=O)O)cc2)C(=O)N[C@@H](CC(=O)O)C(=O)N[C@@H](Cc2c[nH]c3ccccc23)C(=O)N[C@@H](CC(C)C)C(=O)N[C@@H](Cc2ccc(-c3ccccc3)cc2)C(=O)N[C@@H](C(C)CC)C(=O)N1C (stereo partly drawn) [Compound 2229] ({CH2CO}-[Thr(3ξ)]Y(Carboxymethyl)DWL[Bip][Ile(3ξ)][NMeNle][dL][Dab]LVSCN-OH; thioether N-14)
8,0.03,CCC(C)[C@@H]1NC(=O)[C@H](Cc2ccc(-c3ccccc3)cc2)NC(=O)[C@H](C(C)C)NC(=O)[C@H](Cc2c[nH]c3ccccc23)NC(=O)[C@H](CC(=O)O)NC(=O)[C@H](Cc2ccc(OCC(=O)O)cc2)NC(=O)[C@H](C(C)O)NC(=O)CSC[C@@H](C(=O)N[C@@H](CO)C(=O)O)NC(=O)[C@H](C(C)O)NC(=O)[C@H](C(C)C)NC(=O)[C@H](CC2CCCCC2)NC(=O)[C@H](CCN)NC(=O)[C@@H](CC(C)C)NC(=O)[C@H](C)N(C)C1=O (stereo partly drawn) [Compound 2230] ({CH2CO}-[Thr(3ξ)]Y(Carboxymethyl)DWV[Bip][Ile(3ξ)][NMeA][dL][Dab][Cha]V[Thr(3ξ)]CS-OH; thioether N-14)
9,0.02,Cc1cccc(C[C@@H]2NC(=O)[C@H](CC(=O)O)NC(=O)[C@H](Cc3ccc(OCC(=O)O)cc3)NC(=O)[C@H](C(C)O)NC(=O)CSC[C@@H](C(=O)N[C@@H](CO)C(=O)O)NC(=O)[C@H](C(C)O)NC(=O)[C@H](C(C)C)NC(=O)[C@H](CC3CCCCC3)NC(=O)[C@H](CCN)NC(=O)[C@@H](CC(C)C)NC(=O)[C@H](C)N(C)C(=O)[C@H](Cc3ccc(OCC(=O)O)cc3)NC(=O)[C@H](Cc3ccc(-c4ccccc4)cc3)NC(=O)[C@H](Cc3ccc(C(=O)O)cc3)NC2=O)c1 (stereo partly drawn) [Compound 2231] ({CH2CO}-[Thr(3ξ)]Y(Carboxymethyl)D[Phe(3-Me)][Phe(4-COOH)][Bip]Y(Carboxymethyl)[NMeA][dL][Dab][Cha]V[Thr(3ξ)]CS-OH; thioether N-14)
10,0.01,CCC(C)[C@@H]1NC(=O)[C@H](Cc2ccc(-c3ccccc3)cc2)NC(=O)[C@H](C(C)C)NC(=O)[C@H](Cc2cccc(C)c2)NC(=O)[C@H](CC(=O)O)NC(=O)[C@H](Cc2ccc(OCC(=O)O)cc2)NC(=O)[C@H](C(C)O)NC(=O)CSC[C@@H](C(=O)N[C@@H](CO)C(=O)O)NC(=O)[C@H](C(C)O)NC(=O)[C@H](C(C)C)NC(=O)[C@H](CC2CCCCC2)NC(=O)[C@H](CCN)NC(=O)[C@@H](CC(C)C)NC(=O)[C@H](C)N(C)C1=O (stereo partly drawn) [Compound 2232] ({CH2CO}-[Thr(3ξ)]Y(Carboxymethyl)D[Phe(3-Me)]V[Bip][Ile(3ξ)][NMeA][dL][Dab][Cha]V[Thr(3ξ)]CS-OH; thioether N-14)
11,0.02,CCC(C)[C@@H]1NC(=O)[C@H](Cc2ccc(-c3ccccc3)cc2)NC(=O)[C@H](C(C)C)NC(=O)[C@H](Cc2cccc(C)c2)NC(=O)[C@H](CC(=O)O)NC(=O)[C@H](Cc2ccc(OCC(=O)O)cc2)NC(=O)[C@H](Cc2ccncc2)NC(=O)CSC[C@@H](C(=O)N[C@@H](CO)C(=O)O)NC(=O)[C@H](CO)NC(=O)[C@H](C(C)C)NC(=O)[C@H](CC2CCCCC2)NC(=O)[C@H](CCN)NC(=O)[C@@H](CC(C)C)NC(=O)[C@H](C)N(C)C1=O (stereo partly drawn) [Compound 2234] ({CH2CO}-[4Pal]Y(Carboxymethyl)D[Phe(3-Me)]V[Bip][Ile(3ξ)][NMeA][dL][Dab][Cha]VSCS-OH; thioether N-14)
12,0.31,CCC(C)[C@@H]1NC(=O)[C@H](Cc2ccc(-c3ccccc3)cc2)NC(=O)[C@H](C(C)C)NC(=O)[C@H](Cc2cccc(C)c2)NC(=O)[C@H](CC(=O)O)NC(=O)[C@H](Cc2ccc(OCC(=O)O)cc2)NC(=O)[C@H](Cc2ccncc2)NC(=O)CSC[C@@H](C(=O)N[C@@H](CO)C(=O)O)NC(=O)[C@H](CO)NC(=O)[C@H](C(C)C)NC(=O)[C@H](CC2CCCCC2)NC(=O)[C@H](CCN)NC(=O)[C@@H](CC(C)C)NC(=O)[C@H](C)N(C)C1=O (stereo partly drawn) [Compound 2236] ({CH2CO}-[4Pal]Y(Carboxymethyl)D[Phe(3-Me)]V[Bip][Ile(3ξ)][NMeA][dL][Dab][Cha]VSCS-OH; thioether N-14)

row,Compound,IC50 [µM]
1,CCC(C)[C@@H]1NC(=O)[C@H](Cc2ccc(-c3ccccc3)cc2)NC(=O)[C@H](C(C)C)NC(=O)[C@H](Cc2cccc(C)c2)NC(=O)[C@H](CC(=O)O)NC(=O)[C@H](Cc2cccc(C)c2)NC(=O)[C@H](Cc2ccncc2)NC(=O)CSC[C@@H](C(=O)N[C@@H](CO)C(=O)O)NC(=O)[C@H](CO)NC(=O)[C@H](C(C)C)NC(=O)[C@H](CC2CCCCC2)NC(=O)[C@H](CCN)NC(=O)[C@@H](CC(C)C)NC(=O)[C@H](C)N(C)C1=O (stereo partly drawn) [Compound 2235] ({CH2CO}-[4Pal][Phe(3-Me)]D[Phe(3-Me)]V[Bip][Ile(3ξ)][NMeA][dL][Dab][Cha]VSCS-OH; thioether N-14),0.3
